Experiment in all cases: growth of human tumour cells (NCI), 48 h
The test system of test [1] is A549.
For test [2], the system named is ACHN.
Test [3] has as its system DU-145.
For test [4], the system named is HL-60.
Test [5] deals with HOP-62.
The test system of test [6] is HT-29.
In test [7] the test system is MDA-MB-435.
The test system of test [8] is OVCAR-3.
The subject of test [9] is RXF 393.
For test [10], the system named is SF-268.
The test system of test [11] is SF-295.
Test [12] relates to SK-MEL-28.
In test [13] the test system is SK-MEL-2.
Test [14] concerns SNB-19.
The subject of test [15] is SR.
Test [16] relates to SW-620.
In test [17] the test system is UACC-257.
Test [18] deals with UACC-62.
Test [19] has as its system A498.
Test [20] concerns Malme-3M.

Data on eleven compounds can be found in ChEMBL document CHEMBL1201862, “PubChem BioAssay data set” (2004).

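Method: 48-hour compound exposure of cells in 96-well plates, five concentrations, linear interpolation of endpoints. At the GI50, growth is halved.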 Activity calls are given as the source filed them. Cut-off read from the data, not from the text of the source: active = GI50 up to about 1.1 µM and inactive = higher. Positions of bridges follow the written chain, without caps; N, C: chain ends. Residues, ends and D or L forms follow the SMILES beside them.

Take `c1ccc(Cc2cc(-c3ccccc3)[nH]n2)cc1`: the GI50 is 11.1 µM (inactive) in test [1]; 15.8 µM (inactive) in [2]; 11.5 µM (inactive) in test [3]; 16.9 µM (inactive) in test [4]; 24.8 µM (inactive) in [5]; 11.2 µM (inactive) in [6]. Also, the GI50 in [7] was 10.3 µM (inactive); in test [8] it was 0.0465 µM (active); in [9], 10.3 µM (inactive); in test [10], 22.3 µM (inactive); in test [11] it was 0.568 µM (active); in [12], 11.6 µM (inactive). Moreover, the GI50 in test [13] is 16.5 µM (inactive); in test [14], 23.2 µM (inactive); in [15], 18.4 µM (inactive); in test [16], 14.6 µM (inactive); in test [17], 13.3 µM (inactive); in test [18], 14.4 µM (inactive).
For the compound `C/C(=N\N=C(/S)N1CC2CCC(CC2)C1)c1cccc[n+]1[O-]`, the GI50 is 18.3 µM (inactive) in test [19]; 4.98 µM (inactive) in [1]; 5 µM (inactive) in [2]; 46.8 µM (inactive) in test [3]; 0.23 µM (active) in test [4]; 12.6 µM (inactive) in test [5]. Moreover, the GI50 in test [6] was 1.84 µM (inactive); in test [7] it was 28.5 µM (inactive); in test [20] it was 12.5 µM (inactive); in test [8] it was 0.044 µM (active); in test [9] it was 13.7 µM (inactive); in test [10], 11.8 µM (inactive). The GI50 in [11] was 4.43 µM (inactive); in test [12], 5.2 µM (inactive); in test [13] it was 15.3 µM (inactive); in test [14], 9.08 µM (inactive); in [16] it was 4.35 µM (inactive); in test [17] it was 7.59 µM (inactive). Besides, the GI50 in test [18] was 7.31 µM (inactive).
As to `COc1ccc(-c2nc3ncccn3c2-c2ccc([S+](C)[O-])cc2)cc1` (configuration not stated), the GI50 in test [1], in test [2], in test [3], in test [4], in test [5] and in test [6] was > 100 µM (inactive) throughout. Further, the GI50 in test [7] is 15.1 µM (inactive); in test [8], > 100 µM (inactive); in test [10], 89.5 µM (inactive); in [11] it was > 100 µM (inactive); in test [12], > 100 µM (inactive); in test [13] it was > 100 µM (inactive). In addition, the GI50 in test [14] is > 100 µM (inactive); in test [15] it was 50.7 µM (inactive); in test [16], > 100 µM (inactive); in test [17], > 100 µM (inactive); in [18], 54.7 µM (inactive).
In the case of `COC(=O)[C@H](C)NC(=O)[C@H](NS(=O)(=O)c1nc2ccccc2s1)c1ccccc1`, the GI50 in test [2] was 33.9 µM (inactive); in test [3] it was 15.2 µM (inactive); in test [4], 39.3 µM (inactive); in test [5], 29.4 µM (inactive); in test [6], 39.4 µM (inactive); in [7], 41 µM (inactive). For the same compound, the GI50 is 16.9 µM (inactive) in test [9]; 15.1 µM (inactive) in test [10]; 39.1 µM (inactive) in [11]; 17 µM (inactive) in test [12]; 11.3 µM (inactive) in [13]; 27.4 µM (inactive) in test [14]. The GI50 is 15.6 µM (inactive) in [15], 37.3 µM (inactive) in [16], 12.9 µM (inactive) in test [17] and 14.9 µM (inactive) in [18].
Turning to `CCC(C)C1NC(=O)C(CC(C)C)NC(=O)C(C(C)C)NC(=O)C2CSSCC(NC1=O)C(=O)N2` (configuration not stated) (cyclo(CCVLI); disulfide 1-2; configuration not given here), the GI50 in [1] is 0.177 µM (active); in [2], 0.458 µM (active); in [3] it was 0.156 µM (active); in [4], 0.155 µM (active); in test [5], 0.186 µM (active); in test [6], 0.177 µM (active). Also, the GI50 in [7] was 0.194 µM (active); in test [8], 0.187 µM (active); in [10], 0.0387 µM (active); in test [11], 0.182 µM (active); in [12], 0.122 µM (active); in test [13], 0.142 µM (active). In addition, the GI50 in [14] was 0.166 µM (active); in [15], 0.178 µM (active); in test [16], 0.16 µM (active); in test [17] it was 0.141 µM (active); in test [18] it was 0.0904 µM (active).
In the case of `Cc1ccc(/N=C2\C(=N/c3ccc(C)cc3)N(c3ccc(C)cc3)C(=S)N2C(=O)c2ccccc2)cc1`, the GI50 in [1], in [2], in test [3], in [5], in [6] and in test [7] was > 100 µM (inactive) each time. The GI50 in test [20] was > 100 µM (inactive); in [8] it was > 100 µM (inactive); in test [9], 46.8 µM (inactive); in [10] it was > 100 µM (inactive); in test [11], 18.3 µM (inactive); in test [12], > 100 µM (inactive). Further, the GI50 in test [13] was > 100 µM (inactive); in test [14] it was > 100 µM (inactive); in [15], > 100 µM (inactive); in test [16], > 100 µM (inactive); in test [17] it was > 10 µM (inactive); in test [18], > 100 µM (inactive).
Regarding `COC(=O)C1=C2SCc3ccc(cc3)CSC3=C(C(=O)OC)SC(=C(S2)S1)S3`, the GI50 in test [19] is > 100 µM (inactive); in test [1], > 100 µM (inactive); in test [2], > 100 µM (inactive); in test [3], > 100 µM (inactive); in test [4], 0.253 µM (active); in [5], > 100 µM (inactive). The GI50 is 49.4 µM (inactive) in test [7]; > 100 µM (inactive) in [8]; 67.3 µM (inactive) in test [9]; 91.8 µM (inactive) in test [11]; > 100 µM (inactive) in [12]; > 100 µM (inactive) in test [13]. Moreover, the GI50 in test [14], in test [16], in test [17] and in test [18] was > 100 µM (inactive) in each case.
`CN(C)Cc1cc(C(=O)/C=C/c2ccc(Cl)c(Cl)c2)cc(CN(C)C)c1O`: the GI50 in [19] was 3.17 µM (inactive); in test [1] it was 2.39 µM (inactive); in test [2], 1.67 µM (inactive); in test [3], 4.84 µM (inactive); in [4] it was 0.826 µM (active); in test [5] it was 2.24 µM (inactive). The GI50 was 1.24 µM (inactive) in test [6]; 3.26 µM (inactive) in test [7]; 2.88 µM (inactive) in [20]; 1.59 µM (inactive) in test [8]; 2.48 µM (inactive) in test [9]; 3.05 µM (inactive) in [10]. Further, the GI50 in [11] was 3.38 µM (inactive); in [12], 2.57 µM (inactive); in test [14], 2.56 µM (inactive); in [16], 1.45 µM (inactive); in [17] it was 2.31 µM (inactive).
As for `COc1cc2c(cc1OC)-c1c(oc3cc(OC4OC(CO)C(O)C(O)C4O)c(OC)cc3c1=O)C(O)O2` (configuration not stated), the GI50 in test [19], in [1], in test [2], in test [3], in [4] and in test [5] was > 100 µM (inactive) throughout. In addition, the GI50 in test [6], in test [7], in test [20], in test [8], in test [9] and in [10] was > 100 µM (inactive) throughout. The GI50 in test [11], in [12], in [13], in test [14], in [16] and in test [17] was > 100 µM (inactive) throughout. Moreover, in [18], the GI50 is > 100 µM (inactive).
With `O=c1/c(=C/c2ccccn2)sc2nc3cc4c(cc3n12)OCCO4`, the GI50 in test [19], in [1], in [2], in test [3], in test [5] and in test [6] was > 100 µM (inactive) throughout. In addition, the GI50 in test [7], in test [20], in test [8], in test [9], in test [10] and in test [11] was > 100 µM (inactive) each time. Further, the GI50 in test [12], in [13], in test [14], in test [16], in test [17] and in test [18] was > 100 µM (inactive) each time.
For `O=C1/C(=C/c2cccs2)NC(=S)N1CN1CCCCC1`, the GI50 was > 100 µM (inactive) in [19]; > 100 µM (inactive) in [1]; 42.6 µM (inactive) in test [2]; 42.5 µM (inactive) in [3]; > 100 µM (inactive) in [5]; 39.9 µM (inactive) in test [6]. For the same compound, the GI50 is 85.1 µM (inactive) in [7]; > 100 µM (inactive) in test [20]; > 100 µM (inactive) in test [8]; > 100 µM (inactive) in [10]; > 100 µM (inactive) in test [11]; > 100 µM (inactive) in test [12]. For the same compound, the GI50 is > 100 µM (inactive) in [13]; 29.7 µM (inactive) in [14]; 88.9 µM (inactive) in test [15]; 30.3 µM (inactive) in [16]; 55.8 µM (inactive) in [18].
